System: isolated guinea pig heart
Test: Effect on coronary blood flow of the isolated guinea pig heart (perfusion with KH solution)
Experimental: 1. Effect on coronary blood flow of the isolated guinea pig heart. • (1) The perfusion circuit was maintained at 37±1° C. and the perfusate in the condensing tube was thermostatic. The upper end of the condensing tube was connected with reservoir and the lower with aortic cannula via rubber tube. The perfusate level in reservoir A was constant by controlling the height of liquid below the air inlet in reservoir B. The perfusate level was about 50 cm above the aortic root. Constant oxygen was gassed into reservoir A to make the KH solution saturated with oxygen. When full of the oxygenated LH solution, the perfusion tube was clamped. • (2) On […], weighing 300 g, was stunned and exsanguinated via carotid. The chest and pericardium were opened, and then the heart was suspended in the pericardial cradle. The heart was exercised and immediately put into the cold KH solution (4° C.). The remaining blood was pressed out gently. After aortic cannulation at the top of the ascending aorta, the clamp was opened and the coronary venous effluent was present (route: coronary artery→myocardium→right atrium→vena cava and pulmonary artery). The pressure transducer was connected with the apex of heart to record the graphs and count the heart beat. The coronary venous effluent dripped into the measuring cup via a funnel. • (3) Coronary Blood Flow Measurement: The heart was allowed to recover for 10 minutes to stabilize coronary blood flow, heart rate, and heart beat amplitude. The per-minute flow volume was measured consecutively for 3 minutes. If the values were similar, the average was calculated for the normal coronary blood flow. […] The test sample and isoprenaline was injected into the aortic cannula respectively. The per-minute coronary blood flow, heart rate and heart beat duration were measured during 1˜10 min after administration, the maximum and minimum were picked out to caculate the extreme difference. Note: the second administration should not be given until the coronary blood flow returned to normal. Five replicate experiments were conducted to ensure the reproductivity.

[1] = isolated heart, 0.25 μg injected into aortic cannula, X ± SD

## CC(C)NCC(O)c1ccc(O)c(O)c1 (stereo not drawn) [Isoprenaline]
Isolated guinea pig heart
  coronary blood flow (result in words): increased
  heart rate (result in words): increased
  myocardial contraction (result in words): increased
[1]
  Coronary Blood Flow, After administration: 20 ± 4 mL/min
  Heart Rate, After administration: 198 ± 21 time/min
  Heart beat duration, After administration: 62 ± 10 min
